In ChEMBL document CHEMBL1201862, “PubChem BioAssay data set” (2004):
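Step 1: Grow cells in 96-well plates. Step 2: Expose to compound for 48 hours at 5 concentrations. Step 3: Interpolate endpoints linearly; if unreached, use highest concentration. GI50 is the concentration that inhibits growth by half.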 Activity calls are given as the source filed them. Cut-off read from the data, not from the text of the source: active = GI50 up to about 1.1 µM and inactive = higher.

Legend:
Assay in all cases: NCI anticancer screen, dose series, 48 h
COLO 205 = tested on: COLO 205
SN12C = tested on: SN12C
SK-OV-3 = tested on: SK-OV-3
OVCAR-4 = tested on: OVCAR-4
SF-268 = tested on: SF-268
RPMI-8226 = tested on: RPMI-8226
M14 = tested on: M14
A498 = tested on: A498
SK-MEL-28 = tested on: SK-MEL-28
HCT-15 = tested on: HCT-15
SK-MEL-2 = tested on: SK-MEL-2
SNB-75 = tested on: SNB-75
UO-31 = tested on: UO-31
UACC-257 = tested on: UACC-257
HOP-92 = tested on: HOP-92

N=C(N)NCCCC(Nc1c2ccccc2[n+]([O-])c2ccccc12)C(=O)O (stereo not drawn)
GI50 (COLO 205): 27.3 µM (inactive)
GI50 (SN12C): 44.1 µM (inactive)
GI50 (SK-OV-3): > 100 µM (inactive)
GI50 (OVCAR-4): 65.5 µM (inactive)
GI50 (SF-268): 56.4 µM (inactive)
GI50 (RPMI-8226): 10.4 µM (inactive)
GI50 (M14): 73.6 µM (inactive)
GI50 (A498): > 100 µM (inactive)
GI50 (SK-MEL-28): 27.2 µM (inactive)
GI50 (HCT-15): 36.8 µM
GI50 (SK-MEL-2): 88.3 µM (inactive)
GI50 (SNB-75): 34.8 µM (inactive)
GI50 (UO-31): 30.8 µM (inactive)

CCCCNC(=S)OCCC(C)CCCC(C)C (stereo not drawn)
GI50 (SN12C): > 100 µM (inactive)
GI50 (SK-OV-3): > 100 µM (inactive)
GI50 (OVCAR-4): > 100 µM (inactive)
GI50 (UACC-257): > 100 µM (inactive)
GI50 (SF-268): > 100 µM (inactive)
GI50 (RPMI-8226): > 100 µM (inactive)
GI50 (M14): > 100 µM (inactive)
GI50 (A498): > 100 µM (inactive)
GI50 (SK-MEL-28): 87.9 µM (inactive)
GI50 (HCT-15): > 100 µM
GI50 (SK-MEL-2): > 100 µM (inactive)
GI50 (SNB-75): 35.3 µM (inactive)
GI50 (UO-31): > 100 µM (inactive)

CN(C)C1=NC2=S(SC(Nc3ccccc3)=N2)S1 (stereo not drawn)
GI50 (SN12C): 31.3 µM (inactive)
GI50 (SK-OV-3): 46.9 µM (inactive)
GI50 (OVCAR-4): 19 µM (inactive)
GI50 (UACC-257): 7.8 µM (inactive)
GI50 (SF-268): 34.5 µM (inactive)
GI50 (RPMI-8226): 9.33 µM (inactive)
GI50 (M14): 58.1 µM (inactive)
GI50 (A498): 14.6 µM (inactive)
GI50 (HOP-92): 22.7 µM (inactive)
GI50 (SK-MEL-28): 17.2 µM (inactive)
GI50 (HCT-15): 11.9 µM
GI50 (SK-MEL-2): 7.62 µM (inactive)
GI50 (SNB-75): 28.7 µM (inactive)
GI50 (UO-31): 24 µM (inactive)

CC1CCC2c3c([nH]c4ccccc34)C3C(=O)N(c4ccccc4)C(=O)C3C2C1 (stereo not drawn)
GI50 (COLO 205): > 100 µM (inactive)
GI50 (SN12C): > 250 µM (inactive)
GI50 (SK-OV-3): 10.1 µM (inactive)
GI50 (OVCAR-4): > 250 µM (inactive)
GI50 (UACC-257): > 250 µM (inactive)
GI50 (SF-268): 22.9 µM (inactive)
GI50 (RPMI-8226): > 100 µM (inactive)
GI50 (M14): 46.1 µM (inactive)
GI50 (A498): 43.8 µM (inactive)
GI50 (HOP-92): 11.1 µM (inactive)
GI50 (SK-MEL-28): > 250 µM (inactive)
GI50 (HCT-15): > 250 µM
GI50 (SK-MEL-2): 32.5 µM (inactive)
GI50 (SNB-75): 2.65 µM (inactive)
GI50 (UO-31): 58.3 µM (inactive)

CCN(CC)CC(=O)NC1c2ccccc2Oc2ccccc21
GI50 (COLO 205): > 100 µM (inactive)
GI50 (SN12C): > 100 µM (inactive)
GI50 (SK-OV-3): > 100 µM (inactive)
GI50 (OVCAR-4): > 100 µM (inactive)
GI50 (UACC-257): > 100 µM (inactive)
GI50 (SF-268): > 100 µM (inactive)
GI50 (RPMI-8226): > 100 µM (inactive)
GI50 (M14): > 100 µM (inactive)
GI50 (SK-MEL-28): > 100 µM (inactive)
GI50 (HCT-15): > 100 µM
GI50 (SNB-75): > 100 µM (inactive)
GI50 (UO-31): > 100 µM (inactive)

C/C(CC(=O)Nc1cccc([N+](=O)[O-])c1)=N\NC(=O)C[n+]1ccccc1
GI50 (COLO 205): > 100 µM (inactive)
GI50 (SK-OV-3): > 100 µM (inactive)
GI50 (UACC-257): > 100 µM (inactive)
GI50 (SF-268): > 100 µM (inactive)
GI50 (RPMI-8226): > 100 µM (inactive)
GI50 (M14): > 100 µM (inactive)
GI50 (HOP-92): > 100 µM (inactive)
GI50 (SK-MEL-28): > 100 µM (inactive)
GI50 (SK-MEL-2): > 100 µM (inactive)
GI50 (SNB-75): > 100 µM (inactive)
GI50 (UO-31): > 100 µM (inactive)

C/C(=N\N(C)C)c1sc(-n2nc(-c3ccccc3)cc2-c2ccccc2)nc1C
GI50 (COLO 205): > 100 µM (inactive)
GI50 (SN12C): > 100 µM (inactive)
GI50 (SK-OV-3): > 100 µM (inactive)
GI50 (OVCAR-4): > 100 µM (inactive)
GI50 (UACC-257): > 100 µM (inactive)
GI50 (SF-268): > 100 µM (inactive)
GI50 (M14): > 100 µM (inactive)
GI50 (A498): > 100 µM (inactive)
GI50 (HOP-92): 61.9 µM (inactive)
GI50 (SK-MEL-28): > 100 µM (inactive)
GI50 (HCT-15): > 100 µM
GI50 (SK-MEL-2): > 100 µM (inactive)
GI50 (SNB-75): 15.2 µM (inactive)
GI50 (UO-31): > 100 µM (inactive)

CCOC(=O)C(/C(=N\NC(=O)OC)C(=O)Nc1cc(OC)ccc1OC)c1cnc2ccccc2n1 (stereo not drawn)
GI50 (COLO 205): > 100 µM (inactive)
GI50 (SN12C): > 100 µM (inactive)
GI50 (SK-OV-3): > 100 µM (inactive)
GI50 (OVCAR-4): > 100 µM (inactive)
GI50 (UACC-257): > 100 µM (inactive)
GI50 (SF-268): > 100 µM (inactive)
GI50 (RPMI-8226): > 100 µM (inactive)
GI50 (M14): > 100 µM (inactive)
GI50 (A498): > 100 µM (inactive)
GI50 (HOP-92): > 100 µM (inactive)
GI50 (SK-MEL-28): > 100 µM (inactive)
GI50 (HCT-15): > 100 µM
GI50 (SNB-75): > 100 µM (inactive)
GI50 (UO-31): > 100 µM (inactive)

CC(=O)Nc1ccc(/C=C/C(=O)c2sc(-c3cccnc3)nc2C)cc1
GI50 (COLO 205): > 100 µM (inactive)
GI50 (SN12C): > 100 µM (inactive)
GI50 (SK-OV-3): > 100 µM (inactive)
GI50 (UACC-257): > 100 µM (inactive)
GI50 (SF-268): > 100 µM (inactive)
GI50 (RPMI-8226): > 100 µM (inactive)
GI50 (A498): > 100 µM (inactive)
GI50 (HOP-92): > 100 µM (inactive)
GI50 (SK-MEL-28): > 100 µM (inactive)
GI50 (HCT-15): > 100 µM
GI50 (SK-MEL-2): > 100 µM (inactive)
GI50 (SNB-75): > 100 µM (inactive)
GI50 (UO-31): > 100 µM (inactive)

COc1ccc(-n2/c(=N/C(=S)N(C)C)ss/c2=N\C(=S)N(C)C)cc1
GI50 (COLO 205): 48 µM (inactive)
GI50 (SN12C): > 100 µM (inactive)
GI50 (SK-OV-3): 27.8 µM (inactive)
GI50 (OVCAR-4): 4.7 µM (inactive)
GI50 (UACC-257): > 100 µM (inactive)
GI50 (SF-268): 77.1 µM (inactive)
GI50 (RPMI-8226): 21 µM (inactive)
GI50 (M14): 36.9 µM (inactive)
GI50 (A498): > 100 µM (inactive)
GI50 (SK-MEL-28): 9.35 µM (inactive)
GI50 (HCT-15): > 100 µM
GI50 (SK-MEL-2): 46.9 µM (inactive)
GI50 (SNB-75): 22.8 µM (inactive)
GI50 (UO-31): > 100 µM (inactive)

CC(=O)OC(OC(C)=O)c1ncccc1C(=O)OC(C)C
GI50 (COLO 205): 47.4 µM (inactive)
GI50 (SN12C): > 100 µM (inactive)
GI50 (SK-OV-3): > 100 µM (inactive)
GI50 (OVCAR-4): > 100 µM (inactive)
GI50 (UACC-257): > 100 µM (inactive)
GI50 (SF-268): 13.7 µM (inactive)
GI50 (M14): > 100 µM (inactive)
GI50 (A498): > 100 µM (inactive)
GI50 (HOP-92): 18.2 µM (inactive)
GI50 (SK-MEL-28): 1.18 µM (inactive)
GI50 (HCT-15): 33.8 µM
GI50 (SK-MEL-2): > 100 µM (inactive)
GI50 (SNB-75): 81.8 µM (inactive)
GI50 (UO-31): 61.7 µM (inactive)

O=C(CN1CCN(c2cccc(Cl)c2)CC1)N1CCc2c([nH]c3ccccc23)C1c1cccnc1 (stereo not drawn)
GI50 (SN12C): 9.57 µM (inactive)
GI50 (SK-OV-3): > 100 µM (inactive)
GI50 (OVCAR-4): 13.5 µM (inactive)
GI50 (UACC-257): 5.41 µM (inactive)
GI50 (SF-268): 13.1 µM (inactive)
GI50 (RPMI-8226): 1.92 µM (inactive)
GI50 (M14): 4.47 µM (inactive)
GI50 (A498): 20.5 µM (inactive)
GI50 (HOP-92): 12.8 µM (inactive)
GI50 (SK-MEL-28): 12.2 µM (inactive)
GI50 (HCT-15): 5.25 µM
GI50 (SNB-75): 7.62 µM (inactive)
GI50 (UO-31): 4.1 µM (inactive)

COC(=O)N/N=C/c1oc(-c2cccc([N+](=O)[O-])c2)c(-c2cccc([N+](=O)[O-])c2)c1[N+](=O)[O-]
GI50 (COLO 205): > 100 µM (inactive)
GI50 (SN12C): > 100 µM (inactive)
GI50 (SK-OV-3): > 100 µM (inactive)
GI50 (OVCAR-4): > 100 µM (inactive)
GI50 (UACC-257): > 100 µM (inactive)
GI50 (SF-268): > 100 µM (inactive)
GI50 (RPMI-8226): 30.1 µM (inactive)
GI50 (M14): > 100 µM (inactive)
GI50 (HOP-92): 49.3 µM (inactive)
GI50 (SK-MEL-28): > 100 µM (inactive)
GI50 (HCT-15): > 100 µM
GI50 (UO-31): > 100 µM (inactive)

Cc1cc(Cl)ccc1NC(=O)C(=O)Cc1nc2ccc(C(=O)c3ccccc3)cc2nc1O
GI50 (COLO 205): > 100 µM (inactive)
GI50 (SN12C): > 100 µM (inactive)
GI50 (SK-OV-3): > 100 µM (inactive)
GI50 (OVCAR-4): > 100 µM (inactive)
GI50 (UACC-257): > 100 µM (inactive)
GI50 (SF-268): > 100 µM (inactive)
GI50 (M14): 96.6 µM (inactive)
GI50 (HOP-92): 20.4 µM (inactive)
GI50 (SK-MEL-28): > 100 µM (inactive)
GI50 (HCT-15): > 100 µM
GI50 (SK-MEL-2): > 100 µM (inactive)
GI50 (SNB-75): > 100 µM (inactive)
GI50 (UO-31): 78.7 µM (inactive)

N#CCCN(c1ccc(/C=C2\N=C(Cc3ccccc3)OC2=O)cc1)S(=O)(=O)c1ccccc1
GI50 (COLO 205): > 100 µM (inactive)
GI50 (SN12C): > 100 µM (inactive)
GI50 (SK-OV-3): > 100 µM (inactive)
GI50 (UACC-257): > 100 µM (inactive)
GI50 (SF-268): > 100 µM (inactive)
GI50 (RPMI-8226): > 100 µM (inactive)
GI50 (M14): > 100 µM (inactive)
GI50 (A498): > 100 µM (inactive)
GI50 (SK-MEL-28): > 100 µM (inactive)
GI50 (HCT-15): > 100 µM
GI50 (SK-MEL-2): > 100 µM (inactive)
GI50 (SNB-75): > 100 µM (inactive)
GI50 (UO-31): > 100 µM (inactive)
